Target: T1, NMDA receptor glycine site (Rattus norvegicus, UniProt P35439)
T1 construct: to brain membranes bearing the receptor; tissue Analytical Biological Services Inc; host or cells: rat brain membranes (cerebral cortex and hippocampus, male Sprague Dawley rats)
Assay: Test A: Inhibition of binding of [3H]-MDL105,519 to brain membranes
Conditions: inhibition of [3H]MDL105,519 binding, brain membranes
Description: Test A: Inhibition of binding of [^3H]-MDL105,519:
Binding of compounds to the NMDA receptor glycine site may be assessed by measuring the ability of test compounds to inhibit the binding of tritiated MDL105,519 to brain membranes bearing the receptor.
Briefly, fresh brain tissue including cerebral cortex and hippocampus from male Sprague Dawley rats was homogenized in 0.32 M sucrose and centrifuged at low speed to separate cellular membranes from other cellular components. The membranes were then washed 3 times using deionized water, followed by treatment with 0.04% Triton X-100. Finally, membranes were washed six times in 50 mM Tris citrate buffer, pH 7.4, and frozen at −80° C. until use.
[^3H]MDL105,519 (72 Ci/mmol) was purchased from Amersham. Cold MDL105,519 was purchased from Sigma/RBI. […] On the day of the experiment, brain membranes were thawed at room temperature and suspended in 50 mM tris acetate buffer, pH 7.4 (“TAB”). Seventy-five micro grams per milliliter protein (by using the BioRad dye) were used for competition binding. The experiments were carried out using 96-well plates. […] Non specific binding was determined by using 100 μM of unlabeled MDL105,519. […] After incubation, unbound [^3H]MDL105,519 was removed by filtration onto GF/B Unifilter plates using a Packard harvester. Filters were washed four times with ice cold TAB (total of 1.2 mL buffer). The plates were dried overnight at room temperature and bound radioactivity was measured on a Packard TopCount after the addition of 45 μL per well of the MICROSCINT O.
Human Brain Membranes: Human brain membranes were obtained from Analytical Biological Services Inc., and assays were performed as described for rat membranes.
Data analysis: Data was analyzed using a Microsoft Excel spreadsheet and GraphPad Prizm software and potency of compounds is expressed as the Ki (nM).

Row | Ki | Compound
1 | > 10000 nM | CCCC(c1ccccn1)n1nc(O)c2[nH]c3cc(Cl)ccc3c(=O)c2c1=O (racemic) [Ex. 6, (+/−)-7-Chloro-4-hydroxy-2-(butyl-1-(2-pyridyl))-1,2,5,10-tetrahydropyridazino[4,5-b]quinoline-1,10-dione methanesulfonate]

Same assay, conditions: inhibition of [3H]MDL105,519 binding, brain membranes (rat and human membranes described; table does not say which)

Row | Compound | Ki
2 | CC(c1ccco1)n1nc(O)c2[nH]c3cc(Cl)ccc3c(=O)c2c1=O (racemic) | 153 nM
3 | CCC(c1ccccn1)n1[nH]c(=O)c2nc3cc(Cl)ccc3c(O)c2c1=O (racemic) [Ex. 4, (+/−)-7-Chloro-4-hydroxy-2-(propyl-1-(2-pyridyl))-1,2,5,10-tetrahydropyridazino [4,5-b]quinoline-1,10-dione methanesulfonate] | 1810 nM
4 | CCCC(c1ccncc1)n1nc(O)c2[nH]c3cc(Cl)ccc3c(=O)c2c1=O (racemic) [Ex. 7, (+/−)-7-Chloro-4-hydroxy-2-(butyl-1-(4-pyridyl))-1,2,5,10-tetrahydropyridazino[4,5-b]quinoline-1,10-dione] | 4340 nM
5 | CC(C)C(c1ccncc1)n1nc(O)c2[nH]c3cc(Cl)ccc3c(=O)c2c1=O (racemic) [Ex. 8, (+/−)-7-Chloro-4-hydroxy-2-(propyl-(2-methyl-1-(4-pyridyl))-1,2,5,10-tetrahydropyridazino[4,5-b]quinoline-1,10-dione methanesulfonate] | 5230 nM
6 | CC(C)CC(c1ccncc1)n1[nH]c(=O)c2nc3cc(Cl)ccc3c(O)c2c1=O (racemic) [Ex. 12, (+/−)-7-Chloro-4-hydroxy-2-(3-methyl-1-(4-pyridyl)butyl)-1,2,5,10-tetrahydropyridazino[4,5-b]quinoline-1,10-dione] | 5230 nM
7 | O=c1c2ccc(Cl)cc2[nH]c2c(O)nn(CCc3cccnc3Cl)c(=O)c12 [Ex. 15, (+/−)-7-Chloro-4-hydroxy-2-(2-chloro-pyrid-3-yl)ethyl-1,2,5,10-tetrahydropyridazino[4,5-b]quinoline-1,10-dione] | 676 nM
8 | CC(c1ccc(C#N)s1)n1nc(O)c2[nH]c3cc(Cl)ccc3c(=O)c2c1=O (centres unmarked) [Ex. 22, 7-Chloro-4-hydroxy-2-(1-(5-cyanothien-2-yl)ethyl)-1,2,5,10-tetrahydropyridazino[4,5-b]quinoline-1,10-dione] | 692 nM
9 | (+/−)-7-Chloro-4-hydroxy-2-(4-pyridylprop-1-yl)-1,2,5,10-tetrahydropyridazino[4,5-b]quinoline-1,10-dione sodium methanesulfonate [Ex. 3] | 1940 nM

Second part, the compound after the results:

Row | Ki | Compound
10 | 568 nM | COc1cnccc1C(C)n1nc(O)c2[nH]c3cc(Cl)ccc3c(=O)c2c1=O (racemic) [Ex. 13, (+/−)7-Chloro-4-hydroxy-2-(1-(3-methoxypyrid-4-yl))ethyl-1,2,5,10-tetrahydropyridazino[4,5-b]quinoline-1,10-dione methanesulfonate]
11 | 336 nM | CC(c1cnccn1)n1nc(O)c2[nH]c3cc(Cl)ccc3c(=O)c2c1=O (centres unmarked) [Ex. 23, 7-Chloro-4-hydroxy-2-(ethyl-1-(pyrazin-2-yl))-1,2,5,10-tetrahydropyridazino [4,5-b]quinoline-1,10-dione]
12 | 312 nM | COc1ccc(C(C)n2nc(O)c3[nH]c4cc(Cl)ccc4c(=O)c3c2=O)cn1 (racemic) [Ex. 14, (+/−)-7-Chloro-4-hydroxy-2-(1-(2-methoxypyrid-5-yl))ethyl-1,2,5,10-tetrahydropyridazino[4,5-b]quinoline-1,10-dione methanesulfonate]
13 | 177 nM | CC(c1cc2ccccc2s1)n1nc(O)c2[nH]c3cc(Cl)ccc3c(=O)c2c1=O (centres unmarked) [Ex. 21]
14 | 51 nM | CC(c1ccnc(Cl)c1)n1nc(O)c2[nH]c3cc(Cl)ccc3c(=O)c2c1=O (racemic) [Ex. 16, (+/−)-7-Chloro-1-hydroxy-2-(2-chloro(4-pyridyl)ethyl)-1,2,5,10-tetrahydropyridazino[4,5-b]quinoline-1,10-dione]

Test system: not given
Assay: not given
Conditions: not given

Row | melting point | Compound
15 | 245 to 248 °C | CS(=O)(=O)O.O=c1c2ccc(Cl)cc2[nH]c2c(O)nn(CCc3ccncc3)c(=O)c12 [Ex. 2, (+/−)-7-Chloro-4-hydroxy-2-(4-pyridyleth-1-yl)-1,2,5,10-tetrahydropyridazino[4,5-b]quinoline-1,10-dione methanesulfonate]

Test system: CCI rats (thermal hyperalgesia)
Assay: Test C: Neuropathic pain model (Chronic Constriction Injury), thermal hyperalgesia paw-withdrawal test
Assay type: in vivo, rat
Conditions: oral, three times daily for 5 days, at the MED, compared to vehicle-treated animals
Description: Test C: Neuropathic pain model (Chronic Constriction Injury):
The anti-hyperalgesic properties of a compound may be tested with the Chronic Constriction Injury (“CCI”) model. The test is a model for neuropathic pain associated with nerve injuries that can arise directly from trauma and compression, or indirectly from a wide range of diseases such as infection, cancer, metabolic conditions, toxins, nutritional deficiencies, immunological dysfunction, and musculoskeletal changes. In the model a unilateral peripheral hyperalgesia is produced in rats by nerve ligation (G. J. Bennett, et al., Pain 33, 87-107 (1988)).
Procedurally, Sprague-Dawley rats (250-350 g) are anesthetized with sodium pentobarbital and the common sciatic nerve is exposed at the level of the mid thigh by blunt dissection through the biceps femoris. […] Thermal hyperalgesia is measured using a paw-withdrawal test (K. Hargreaves, et al., Pain 32, 77-88 (1988)). […] The latencies for the withdrawal reflex in both hind paws are recorded.
Injured paws with ligated nerves show shorter paw withdrawal latencies compared to the uninjured or sham operated paws. Responses to test compounds are evaluated at different times after oral administration to determine the onset and duration of compound effect. […] Paw withdrawal latencies are measured each day 10 min before and 2 or 3 hr. after the first daily dose. […]

Row | Compound | Test C %Inh. (percent decrease in hyperalgesia at the MED)
16 | (+/−)-7-Chloro-4-hydroxy-2-(4-pyridylprop-1-yl)-1,2,5,10-tetrahydropyridazino[4,5-b]quinoline-1,10-dione sodium methanesulfonate [Ex. 3] | 10%

Same assay, conditions: oral, three times daily for 5 days, dose giving statistically significant decrease in hyperalgesia

Row | Compound | Test C MED (minimum effective dose)
17 | (+/−)-7-Chloro-4-hydroxy-2-(4-pyridylprop-1-yl)-1,2,5,10-tetrahydropyridazino[4,5-b]quinoline-1,10-dione sodium methanesulfonate [Ex. 3] | 30 mg/kg/day

Source: patent US20030153571A1 (priority 2002, published 2003)
